Among the data in PMC8233378, “Acyclic nucleoside phosphonates with adenine nucleobase inhibit Trypanosoma brucei adenine phosphoribosyltransferase in vitro” (Scientific Reports, 2021) are Ki values, retold here.

Structures can show the parent of a compound that is named as a salt. Where only a bound is given, the exact number is not on record here.

By Ki is commonly meant the equilibrium dissociation constant of an inhibitor or competing ligand from its target.

recombinant T. brucei APRT1, sequence (Q57V32 entry or part of it): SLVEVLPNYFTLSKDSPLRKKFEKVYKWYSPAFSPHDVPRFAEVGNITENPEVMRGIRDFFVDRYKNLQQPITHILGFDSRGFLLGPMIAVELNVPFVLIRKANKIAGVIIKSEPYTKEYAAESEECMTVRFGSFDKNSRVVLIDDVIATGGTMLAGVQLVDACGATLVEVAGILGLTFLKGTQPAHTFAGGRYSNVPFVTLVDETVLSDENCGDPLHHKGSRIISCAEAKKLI

One experiment has as its target recombinant T. brucei APRT1 (Trypanosoma brucei brucei, UniProt Q57V32). Put plainly: Inhibition of recombinant APRT1, continuous spectrophotometric assay (adenine to AMP, 256 nm). Type of experiment: biochemical. The note with it: APRT1 Ki, recombinant APRT1 280 nM, 1 mM PRib-PP, 60 μM adenine, pH 8.4, 25 °C. From the text: To test if the newly synthesized ANPs with an adenine as a nucleobase can inhibit the activity of the APRT1 and APRT2, both enzymes were overexpressed in E. coli. […] First, we monitored the APRT1 enzyme activity by a continuous spectrophotometric assay measuring the conversion of adenine to AMP at 256 nm.
The T. brucei aprt1 and aprt2 genes were PCR amplified using oligonucleotides listed in Supplementary File S1, digested with BglII or BamHI and XhoI enzymes and ligated into the pSKB3 expression vector. The pSKB3 vector carries a 6 × His-tag and an AcTEV cleavage site upstream of BamHI restriction site. A BglII or BamHI restriction site was introduced at the 5′ end of the respective genes instead of the initiation methionine codon to maintain the 6 × His-tag and AcTEV recognition motif in frame with the genes. The verified plasmids were transformed into the BL21(DE3) E. coli cells. The 6xhis-tagged recombinant APRT1 protein was purified under native conditions using the ÄKTA prime plus instrument. Elution fractions were analyzed by SDS-PAGE, and those containing APRT1 were pooled and dialyzed against 50 mM Tris–HCl, pH 8.0, 150 mM NaCl, 5 mM MgCl2, 10% glycerol. Bradford protein assay (BioRad) was used to determine protein concentrations. The APRT1 recombinant protein was sent for antibody production to Davids Biotechnology (Regensburg, Germany). Recombinant APRT1 was subsequently used in all in vitro assays.
The methodology was adapted from Ref.[6]. Briefly, the enzyme kinetics of APRT1 were measured by a continuous spectrophotometric assay measuring the conversion of adenine to AMP, at 256 nm. The concentration of enzyme in the assay was 140 nM, the concentration of PRib-PP was kept at 1 mM and the adenine concentration varied from 3.75 to 60 μM. The reaction was carried out using a 1.0 cm path length with a UV Visible spectrometer 1601 (Shimadzu) in the reaction buffer (0.1 M Tris, pH 8.4; 0.11 M MgCl2; at 25 °C). The initial velocity (V0 [µM/min]) was calculated using Beer–Lambert law for different concentration of the purine substrate molecules: A = Δε × L × c where A is the measured absorbance, Δε is constant 2100 M^−1 cm^−1 for adenine, c is a concentration of the product formed in one minute (V0) and L is the length of a cuvette. The Km, Vmax and kcat values were calculated using GraphPad Prism 9 according to Michaelis–Menten kinetics. The Ki values of the inhibitors for APRT1 were determined in the same reaction buffer containing 1 mM PRib-PP, 60 μM adenine and 280 nM APRT1. The concentrations of inhibitors in the assay ranged from 1 nM to 100 μM, depending on the activity of the compound. The reaction was preceded by 1 min incubation of the respective enzyme with the given inhibitor. The Ki values were calculated using non-linear regression in GraphPad Prism 9.
As to `Nc1ncnc2c1ncn2CC[S+]([O-])CCP(=O)(O)O` (centres unmarked) [4b, Sodium 5-(adenin-9-yl)-3-oxo-3-thiapentanephosphonate], the Ki was above 30 µM.

Still in this experiment, the particulars now being: recombinant APRT1 280 nM, 1 mM PRib-PP, 60 μM adenine, pH 8.4, 25 °C; read-out: APRT1 Ki.
With `Nc1ncnc2c1ncn2CCCSCP(=O)(O)O` [3a, 5-(Adenin-9-yl)-2-thiapentanephosphonic acid, disodium salt], the Ki was 10.1 ± 1.1 µM.
On the same count and under the same terms, as for `Nc1ncnc2c1ncn2CCSCCP(=O)(O)O` [3b, 5-(Adenin-9-yl)-3-thiapentanephosphonic acid, disodium salt], the figure is above 30 µM; as for `Nc1ncnc2c1ncn2CCC[S+]([O-])CP(=O)(O)O` (centres unmarked) [4a, 5-(Adenin-9-yl)-2-oxo-2-thiapentanephosphonic acid, disodium salt], above 30 µM.
`Nc1ncnc2c1ncn2CCN(CCNCCO)CCP(=O)(O)O` [9a, 9-[(N-(2-((2-Hydroxyethyl)amino)ethyl)-N-(2-phosphonoethyl))-2-aminoethyl]adenine triethylammonium salt]: the Ki stood at 4.92 ± 0.43 µM.
Regarding `N#CCCN(CCn1cnc2c(N)ncnc21)CCP(=O)(O)O` [9b, 9-[(N-(2-Cyanoethyl)-N-(2-phosphonoethyl))-2-aminoethyl]adenine], the Ki was above 30 µM.
The same measure, in the same setting: for `Nc1ncnc2c1ncn2CCN(CCP(=O)(O)O)CCP(=O)(O)O` [9c, 9-[(N,N-(Bis-2-phosphonoethyl))-2-aminoethyl]adenine] the value was above 30 µM; for `Nc1ncnc2c1ncn2CCN(CCOCP(=O)(O)O)CCP(=O)(O)O` [9d, 9-[(N-Phosphonoethyl-N-phosphonomethoxyethyl)-2-aminoethyl]adenine], 3.88 ± 0.29 µM; for `Nc1ncnc2c1ncn2CCN(CCCC(=O)O)CCP(=O)(O)O` [9f, 9-[(N-(Carboxypropyl)-N-(2-phosphonoethyl))-2-aminoethyl]adenine], above 30 µM.
On the same count and under the same terms, as for `Nc1ncnc2c1ncn2CCN(CCOCCP(=O)(O)O)CCP(=O)(O)O` [9g, 9-[(N-Phosphonoethyl-N-phosphonoethoxyethyl)-2-aminoethyl]adenine], the figure is 3.07 ± 0.25 µM.
The same measure, in the same setting: for `Nc1ncnc2c1ncn2CCN(CCN(CCP(=O)(O)O)CCP(=O)(O)O)CCP(=O)(O)O` [compound 17, (2-((2-((2-(Adenine-9-yl)ethyl)(2-phosphonoethyl)amino)ethyl)(2-phosphonoethyl)amino)ethyl)phosphonic acid] the value was 21.3 ± 2.1 µM; for `Nc1ncnc2c1ncn2CC(COCCP(=O)(O)O)OCCP(=O)(O)O` (centres unmarked) [compound 20, 4-(Adenin-9-ylmethyl)-3,6-dioxaoctane-1,8-diphosphonic acid], 27.7 ± 4.5 µM; for `Nc1ncnc2c1ncn2CCOC(CO)CP(=O)(O)O` (centres unmarked) [compound 21, 9-[2-(3-Hydroxy-1-phosphonopropan-2-yloxy)ethyl]adenine], above 30 µM.
In the case of `Nc1ncnc2c1ncn2CC(COCP(=O)(O)O)COCP(=O)(O)O` [compound 22, {[(2-[(Adenin-9-yl)methyl]propane-1,3-diyl)bis(oxy)]bis(methylene)}diphosphonic acid], the inhibition constant Ki was 5.15 ± 0.69 µM.
